Data as given in patent US20170266266A1, “Functions of 55 Newfound Proteins and Their Medicinal Application in the Treatment and Prevention of Disease” (priority 2012, published 2017).

Tests used:
[1] = tested on: adjuvant-induced arthritis; test: Adjuvant-Induced Arthritis (AIA) in Lewis rats; conditions: 35 days and 45 days treatment sections
HBV [2] = test: Efficacy of RAAS-8 in the HBV mouse hydrodynamic injection model; assay type: in vivo, BALB/c mice
Procedure: 3.1 Hydrodynamic Injection and Compound Administration • 3.1.1. From day −7 to day 0, all 5 mice in group 4 were administrated i.p./i.v. with test article daily for 8 • days according to Table 2. • 3.1.2. On day 0, all groups of mice were hydrodynamicly injected via tail vein with pcDNA3.1/HBV plasmid DNA in a volume of normal saline equal to 8% of a mouse body weight. The plasmid DNA solution for injections was prepared one day before injection and then stored in 4E until injection. • 3.1.3. From day 0 to day 5, mice in groups 1-3 were weighed and treated with compounds or vehicle according to the regimen in Table 2. For groups 1 and 3, the first dosing was executed 4 hours pre HDI. For groups 2, the first dosing was executed 4 hours post HDI. For group 4, the last dosing was carried out 4 hours post HDI. • 3.1.4. All mice were submandibularly bled for plasma preparation according to the design in Table 1. • 3.1.5. All mice were sacrificed and dissected to obtain livers (two pieces of left lobe, one piece of middle lobe and one piece of right lobe) according to the regimen in table 1. Isolated livers were snap frozen in liquid nitrogen immediately upon collected.
3.2.1 Detect HBV DNA Replication Level in Plasma • 3.2.1.1 Isolate DNA from 50 μl plasma using QIAamp 96 DNA Blood Kit. DNA was eluted with 120 μl ddH2O. • 3.2.1.2. Run qPCR for HBV DNA quantification. • a) Dilute HBV plasmid standard by 10-fold from 10^7 copies/μl to 10 copies/μl. • b) Prepare qPCR mix as shown below.
To eliminate the influence of input HBV plasmid, primers and probe targeting HBV sequence which detect newly replicated HBV DNA and input HBV plasmid DNA and targeting pcDNA3.1 plasmid backbone sequence which only detect the input plasmid DNA were used to do real-time PCR, respectively.
HBV DNA quantity=DNA determined by HBV primer-DNA determined by plasmid primer.
Dilute the plasma 500 fold;
Detect HBsAg level in 50 μl diluted plasma by using HBsAg ELISA kit.
3.2.3.1 Liver DNA Isolation • a) Homogenize the liver tissue with Qiagen Tissue Lyser in 10 mM Tris.HCl, 10 mM EDTA, pH7.5. • b) Spin samples. Transfer the supernatant to a new tube containing equal volume of 2× proteinase K digestion buffer. Incubate at 50[…] for 3 hours. • c) Extract with phenol: chloroform: Isoamyl alcohol. • d) Transfer the upper phase to new tubes, add RNase A and incubate at 37° C. for 30 min. • e) Extract with phenol: chloroform: Isoamyl alcohol. • f) Transfer the upper phase to new microfuge tubes, add 0.7-1 volume of isopropanol, add GlycoBlue Coprecipitant to 50 μg/mL, incubate at −20[…] for 30 min. • g) Centrifuge (12000 g, 10 min) to precipitate DNA. • h) Wash the precipitate with 70% ethanol. Dissolve it in 25 μl ddH2O. Store DNA at −20[…] until use.
The total liver DNA was diluted to 10 ng/μl. […]

HBV [3] = test: Efficacy of AFOD RAAS 105 in the HBV mouse hydrodynamic injection model; assay type: in vivo, BALB/c mice
Procedure: From day −7 to day 0, mice in groups 6-7 are administrated IP/IV by turn with test article daily for 8 days according to Table 3.
On day 0, mice from group 1 to group 7 are hydrodynamically injected through tail vein with pcDNA3.1/HBV plasmid DNA in a volume of normal saline equal to 8% of a mouse body weight within 5 seconds. The plasmid DNA solution for injections is prepared before injection.
From day 0 to day 4, mice in groups 3-5 are administrated IP/IV by turn with test article daily for 5 days according to Table 2. From day 0 to day 4, mice in groups 1 and 2 are administrated PO with vehicle or ETV daily for 5 days according to Table 1. For groups 1-5, the first dosing is executed 4 hours post hydrodynamic injection. For groups 6-7, the last dosing is executed 4 hours pre hydrodynamic injection.
Mice from group 1 to group 7 are submandibularly bled for plasma preparation according to the design in Table 1. The blood samples will be collected in a tube containing heparin sodium and centrifuged at 7000×g and 4° C. for 10 min to obtain plasma samples.
On day 5, all mice in groups 1-7 are sacrificed and dissected to obtain livers (two pieces of left lobe, one piece of middle lobe and one piece of right lobe) according to the regimen in table 1. […]
Run qPCR for HBV DNA quantification. • a. […]
HBV DNA quantity=DNA determined by HBV primer-DNA determined by plasmid primer. […]

Structure (SMILES)	body weight vs saline group [1]	ssDNA in liver by southern blot (HBV [2]; RASS 8 prophylactic treatment or ETV treatment)	HBV intermediate DNA in liver by real-time PCR (HBV [2]; day 5)	HBsAg level in plasma (HBV [2]; therapeutic treatment, within 5 days post HDI)	inhibition to HBV replication (plasma HBV DNA) (HBV [2]; therapeutically-treated, day 3 post HDI to end)	HBV replication in livers by real-time PCR (HBV [3]; day 5)	HBsAg generation (HBV [3]; oral 0.1 mg/kg, day 3)
C[C@@H]1C[C@H]2[C@@H]3CCC4=CC(=O)C=C[C@]4(C)[C@@]3(F)[C@@H](O)C[C@]2(C)[C@@]1(O)C(=O)CO [Dex, Dexamethasone]	reduction of body weight	–	–	–	–	–	–
C=C1[C@H](CO)[C@@H](O)C[C@@H]1n1cnc2c(=O)[nH]c(N)nc21 [entecavir, Entecavir, reference compound]	–	decreased dramatically	significantly decreased	didn't have significant inhibition	significant inhibition	significantly inhibited HBV replication in livers	significant increase
